Measured values taken from patent US20070202166A1, “Method for increasing the rate and consistency of bioavailability of supplemental dietary ingredients” (priority 2006, published 2007).
“Also recorded” adds a separate entry of the source.

Assays:
Assay type in all cases: physicochemical
[1] = Solubility test: powder added to stirred water until saturated, gravity filtered, dry residue on filter paper weighed; conditions: Whatman 41 filter paper, particle retention 20-25 μm
Procedure: In order to test the capacity of fine-milling to improve the rate bioavailability of substances, a simple test was performed. The test was conceived to mimic various elements involved in the processes of oral administration of a nutritional supplement. The key parameters involved were rate of dissolution and solubility, as it is understood that an ingested nutrient must be dissolved or reduced to a bio-transportable size in order to be utilized biochemically by the body.
The rates of dissolution and solubility of regular common nutritional supplements were compared to fine-milled versions within a fixed time. […] 100 mL of water was added to a 250 mL beaker and a magnetic stirring bar was placed in the beaker. The beaker was placed on a magnetic stirrer and stirred with low speed. 1 g of a given supplemental dietary ingredient powder was added incrementally to the beaker with the stirring speed constant until the solution visually appeared saturated. The solution was filtered by gravity through a pre-weighed filter paper (Whatman 41, particle retention 20-25 μm). […]
The ‘Fold Change’ represents the change in the amount of substance unable to pass through the filter as calculated by the amount of unfiltered regular substance divided by the amount of unfiltered fine-milled substance and represents the potential theoretical improvement in bioavailability.

[2] = Time to dissolve in stirred water, estimated by visual inspection; conditions: for Time taken to dissolve: 100 mL water, constant stirring
Procedure: In order to determine the effect of fine-milling on the dissolution rate, initial testing was performed to examine the rate of dissolution of common supplemental dietary ingredients. For the purposes of this disclosure, the term “regular” as used herein makes reference to non-fine-milled particles. 100 mL of water was placed into a 250 mL beaker and a magnetic stirrer bar was added to the beaker. The beaker was then placed on a magnetic stirrer was set to constant speed. […] The time required to dissolve was estimated by visual inspection. Equal amounts of the fine-milled ingredients were then added to the water and the time required to dissolve was estimated by visual inspection.

[3] = Kinetic dissolution experiment: 1 g in 50 mL water, filtered at 1 and 5 minutes
Procedure: In order to expand on the results of the aforenoted experiments, a kinetic experiment was conducted to examine the change in the dissolution rate over short time periods.
1 g of sample was added to 50 mL water in a flask with a magnetic stir bar on a stirrer set at constant speed. Separate samples were filtered at 1 and 5 minutes. The pre-weighed filter papers (Whateman 41, particle retention 20-25 μm) were allowed to dry and the amount of sample remaining on the filter paper was determined.

## CN(CC(=O)O)C(=N)N.O [Creatine Monohydrate]
[1]; Fine-milled powder
  Dry Powder On Filter: 0.01 g
[1]; Regular powder
  Dry Powder On Filter: 0.19 g
[2]; Fine-milled powder, same amount as regular
  Time taken to dissolve: <5 min
[2]; Monohydrate
  Rate of dissolving, fine-milled compared with regular (in words): appeared to dissolved at the same rate in both the fine-milled and regular formats; also recorded: did not display a difference dependent on particle size
[2]; Regular (non-milled) powder
  Time taken to dissolve: <5 min
[3]; Fine-milled, 1-minute interval, Monohydrate
  weight of unfiltered sample: 0.33 g
[3]; Fine-milled, 1-minute interval, listed as creatine, Monohydrate
  weight of unfiltered sample: 0.32 g
[3]; Fine-milled, 5-minute interval
  weight of unfiltered sample: 0.27 g
[3]; Regular, 1-minute interval, listed as Creatine monohydrate, Monohydrate
  weight of unfiltered sample: 0.32 g
[3]; Regular, 1-minute interval, listed as creatine, Monohydrate
  weight of unfiltered sample: 0.33 g
[3]; Regular, 5-minute interval
  weight of unfiltered sample: 0.40 g
